Legend:
Assay type in all cases: in vivo, human
[1] = system: Parkinson's disease (PD) patients; assay: Go/No-Go (GNG) Test in Parkinson's disease patients, double-blind crossover study; conditions: for GNG reaction times: vs placebo plus levodopa
From the text: (§1) Continuous performance testing, in various forms, has become a standard clinical procedure. Generally speaking, continuous performance testing evaluates a subject's visual attention by displaying a series of visual stimuli, to which the subject is instructed to respond. In a typical case, often referred to as a “Go—No Go” test, the stimuli are of two types (the “Go” and “No Go” stimuli); the subject is instructed to respond only to the “Go” stimulus, and not to respond or “pass” when presented with the “No Go” stimulus. Data collected for each stimulus presented consists of the type of the stimulus; whether or not the subjects responded; and, if so, how long they took to respond. The continuous performance test has been in use since the 1950s.
(§2) Parkinson's disease (PD) patients participated in a double-blind, crossover study to assess the effect of co-administration of an A2a antagonist with a dopamine precursor on cognition and motor function. The A2a antagonist was 4-hydroxy-4-methyl-piperidine-1-carboxylic acid-(4-methoxy-7-morpholin-4-yl-benzothiazol-2-yl)-amide and the dopamine precursor was levodopa.
(§3) The patients were randomly allocated to 1 week of 4-hydroxy-4-methyl-piperidine-1-carboxylic acid-(4-methoxy-7-morpholin-4-yl-benzothiazol-2-yl)-amide and levodopa, 1 week washout (levodopa only), then 1 week placebo plus levodopa or the reverse order. Optimal levodopa doses were established for each patient according to normal clinical practice. Active drug was administered at 60 mg bid (N=14) or 20 mg bid (N=12) of 4-hydroxy-4-methyl-piperidine-1-carboxylic acid-(4-methoxy-7-morpholin-4-yl-benzothiazol-2-yl)-amide. At the end of each treatment week, participants completed motor assessments, a Continuous Performance Test (CPT), a Go/No-Go (GNG) Test, and a 2-Back Test after overnight withdrawal of levodopa and again after intravenous (IV) infusion of a suboptimal level of levodopa.
Subjects monitored a visual display while single uppercase letters were presented one at a time interspersed with the number “5”. Participants were instructed to push a target response button at the occurrence of every letter (i.e., a “Go” response) but to withhold a response for the number 5 (i.e., a “No-Go” response). Target frequency was manipulated in a blocked fashion, with two levels of target frequency (83% letters: 17% “5”s; 50% letters: 50% “5”s).

[2] = system: Parkinson's disease (PD) patients; assay: 2-Back Test in Parkinson's disease patients, double-blind crossover study; conditions: either dose (60 mg bid, 20 mg bid) with levodopa; all p-values>0.05
From the text: as §2, §3

[3] = system: Parkinson's disease (PD) patients; assay: Continuous Performance Test (CPT) in Parkinson's disease patients, double-blind crossover study; conditions: either dose (60 mg bid, 20 mg bid) with levodopa; all p-values>0.05
From the text: as §1, §2
The patients were randomly allocated to 1 week of 4-hydroxy-4-methyl-piperidine-1-carboxylic acid-(4-methoxy-7-morpholin-4-yl-benzothiazol-2-yl)-amide and levodopa, 1 week washout (levodopa only), then 1 week placebo plus levodopa or the reverse order. […]

[4] = system: Parkinson's disease (PD) patients; assay: Participant-reported sleepiness in Parkinson's disease patients, double-blind crossover study; conditions: compared to placebo
From the text: as §2, §3

[5] = system: Parkinson's disease (PD) patients; assay: Motor assessments (tapping speed, UPDRS item) in Parkinson's disease patients, double-blind crossover study
From the text: as §2, §3

[6] = FIG. 1 legend, A2a antagonist compared with placebo, dose not stated

COc1ccc(N2CCOCC2)c2sc(NC(=O)N3CCC(C)(O)CC3)nc12 [4-hydroxy-4-methyl-piperidine-1-carboxylic acid-(4-methoxy-7-morpholin-4-yl-benzothiazol-2-yl)-amide]
GNG reaction times ([1]; 20 mg bid for 1 week with levodopa, p=0.05, N=12): faster GNG reaction times
GNG accuracy ([1]; 60 mg bid and 20 mg bid with levodopa, ps>0.25): without reduced accuracy
GNG reaction times ([1]; 60 mg bid for 1 week with levodopa, p<0.01, N=14): faster GNG reaction times
Go/No-Go task mistakes (FIG. 1) [1, 6]: fewer mistakes
Go/No-Go task reaction time (FIG. 1) [1, 6]: reaction times are faster
effect on the 2-Back test [2]: no significant effects
effect on the CPT test [3]: no significant effects
reported sleepiness ([4]; 20 mg bid, p>0.05): no significant difference
reported sleepiness ([4]; 60 mg bid, before and after levodopa, p<0.05): less sleepiness
rapidly alternating hand movements item from the UPDRS ([5]; 60 mg bid and levodopa, p=0.03): significant
tapping speed ([5]; 60 mg bid, before and after levodopa, p: 0.05): significant motor benefit

— US20220125772A1, “A2A ANTAGONISTS AS COGNITION AND MOTOR FUNCTION ENHANCERS” (Biotie Therapies, Inc., priority 2010, published 2022)
